Test results from US20180289763A1, “COMPOSITION CONTAINING HERBAL MEDICINE EXTRACTS OF PINELLIA AND SCUTELLARIA FOR REDUCING SIDE EFFECTS DUE TO ANTICANCER DRUGS” (COMPREHENSIVE AND INTEGRATIVE MEDICINE INSTITUTE, priority 2013, published 2018).
Marks after values point to notes of the source that are not given here.

Legend:
tryptophan hydroxylase = test: Pylorus tryptophan hydroxylase activity; assay type: in vivo, rat
Source text: Meanwhile, in the ondansetron administered group, a change in tryptophan hydroxylase activity similar to that in the cisplatin control was shown (FIG. 3(A)).

[1] = Body weight and body weight gain in cisplatin-treated rats; assay type: in vivo, rat
Method: Body weights and body weight gains in each group that were measured after the first and fourth administrations of cisplatin and the necropsy are shown in Table 3.

[2] = system: serotonin immunoreactive cells; test: Serotonin immunoreactive cells in pyloric and colonic mucosa; assay type: in vivo, rat
Method: (§1) In the examples, to provide an integrated medical method to reduce side effects caused by a chemotherapeutic agent with respect to a patient with a neoplastic disease, an effect of co-administration of a Pinelliae Rhizoma and Scutellariae Radix extract with respect to a digestive motility disorder caused by the chemotherapeutic agent was examined. In the following examples, rats with a gastrointestinal motility disorder caused by cisplatin were used. 2 mg/kg of cisplatin was administered once a week for 5 weeks, each of 200, 100 and 50 mg/kg of the Pinelliae Rhizoma and Scutellariae Radix extracts were administered at 14 days from the fourth administration of cisplatin, influences on gastrointestinal motility, damage to a digestive tract mucosa and physiology of digestive tract endocrine cells were observed as well as an antioxidative effect, experimental results were compared to an ondansetron 1 mg/kg administered group, wherein the ondansetron was known as a representative 5-HT3 receptor blocking agent to have an effective effect on a cisplatin-induced gastrointestinal motility disorder.
(§2) In this example, as laboratory animals, Sprague-Dawley, Slc: SD rats (6-week-old males, SLC, Shizuoka, Japan) were used. 60 healthy SPF rats were purchased, acclimated for 14 days, and 8 laboratory animals having uniform body weights (intact control: 249.13±12.12 g, 232˜264 g; cisplatin treated group: 225.35±10.58 g, 206˜243 g) when fasting after three weeks of cisplatin administration per each group were selected to be used in the experiment. […] All of the laboratory animals underwent fasting for about 18 hours at each of the first treatment of cisplatin, the first drug administration and the final necropsy (even in this period, drinking water was freely provided), individuals were identified using picric acid.
(§3) To cause a gastrointestinal motility disorder, 2 mg/kg of cisplatin (Sigma-Aldrich, St. Louise, Mo., USA) was dissolved in a saline solution, and the resulting solution was intraperitoneally administered at a dose of 1 ml/kg once a week for 5 weeks, thereby causing a chronic gastrointestinal motility disorder, and in the normal vehicle control, the same dose of a saline solution, instead of cisplatin, was intraperitoneally administered by the same method.
(§4) A Pinelliae Rhizoma and Scutellariae Radix herbal medicine was dissolved in sterile distilled water at a dose of 5 ml/kg (a body weight of the animal) three weeks after the first cisplatin administration, and forcibly and orally administered with a 5 ml syringe equipped with a metal zonde 30 minutes after the fourth cisplatin administration once a day for 14 days. The ondansetron was dissolved in a saline solution, subcutaneously administered with the same frequency as the Pinelliae Rhizoma and Scutellariae Radix herbal medicine at a dose of 1 ml/kg, and in the normal vehicle and cisplatin controls, instead of the Pinelliae Rhizoma and Scutellariae Radix extract or ondansetron, only the same dose of sterile distilled water was orally administered.
(§5) An effect on the gastrointestinal motility was evaluated by evaluating a charcoal transit ratio in the small intestine, effects on constipation were evaluated by observing a body weight, the change in fecal parameters (the fecal pellet number, the fecal weight, and the water content in the feces), the histopathological changes in the colon containing fecal pellets—changes in fecal pellet surface mucosa thickness, mucous producing cell number per mm2 of the mucosa and average mucosa thickness.

[3] = system: cisplatin-induced gastrointestinal motility disorder; test: Charcoal transit ratio in small intestine (gastrointestinal motility); assay type: in vivo, rat; details: for Distance charcoal meal transferred / GI charcoal transit ratio: during 30 min
Source text: Also, permeation of a substance through the digestive tract represents the motility in the entire gastrointestinal tract, measurement of a charcoal transit ratio in the small intestine is known to be very useful to diagnose whether or not there is a problem in digestive motility (Wintola et al., 2010), and a decrease in the charcoal transit ratio in the small intestine indicates a decrease in digestive motility such as the fecal retention, that is, constipation (Sagar et al., 2005; Meite et al., 2010).
A total length of a small intestine and a distance that a charcoal meal was transferred in the small intestine were measured, and the charcoal transit ratio was calculated, and then the results are shown in Table 4.

[4] = system: fundus antioxidant defense system; test: Fundus antioxidant defense system (MDA, GSH, CAT, SOD); assay type: in vivo, rat
Source text: Changes in MDA content, GSH content, SOD activity, and CAT activity in the fundus in each group that were observed are shown in Table 6.

[5] = system: cisplatin-induced gastrointestinal motility disorder; test: Fecal parameters (pellet number, wet and dry weight, water content); assay type: in vivo, rat; details: for Fecal Dry-weight / Fecal Water content / Fecal Wet-weight / Fecal pellet number: feces of 24 hours
[6] = system: cisplatin-induced gastrointestinal tract damage (fundic and pyloric mucosa); test: Histopathology of fundus and pylorus (mucosa thickness, degenerative mucosa percentage)
Method: as §1, §2, §3, §4, §5

monoamine oxidase = test: Pylorus monoamine oxidase activity; assay type: in vivo, rat
Method: Compared to the normal vehicle control, in the cisplatin control, a significant (p<0.01) decrease in activity of a serotonin lyase, monoamine oxidase, in pyloric tissues was shown, but in the Pinelliae Rhizoma and Scutellariae Radix extract 200, 100 and 5 mg/kg administered groups, compared to the cisplatin control, significant (p<0.01) increases in monoamine oxidase activity in pyloric tissues were dose-dependently shown. Meanwhile, in the ondansetron administered group, a change in monoamine oxidase activity similar to that in the cisplatin control was shown (FIG. 3(B)).

gastrin = test: Gastrin content in pyloric tissues; assay type: in vivo, rat
Source text: Meanwhile, in the ondansetron administered group, a change in pylorus gastrin content similar to that in the cisplatin control was shown (FIG. 4(A)).

[7] = system: gastrin immunoreactive cells; test: Gastrin immunoreactive cells in pyloric mucosa; assay type: in vivo, rat
Source text: As a result of observing histopathological changes, the numbers of gastrin and serotonin immunoreactive cells in the pyloric mucosa and the number of serotonin immunoreactive cells in the colonic mucosa that were detected are shown in Table 9.
Meanwhile, in the ondansetron administered group, a change in the number of gastrin immunoreactive cells in the pyloric mucosa similar to that in the cisplatin control was shown (Table 9, and FIG. 8).

serotonin = test: Serotonin content in pyloric tissues; assay type: in vivo, rat
Source text: Meanwhile, in the ondansetron administered group, a change in pylorus serotonin content similar to that in the cisplatin control was shown (FIG. 4(B)).

[8] = system: cisplatin-induced colonic mucosa atrophy; assay type: in vivo, rat; details: 1 mg/kg s.c., 14 days
Source text: In the cisplatin control, considerable decreases in the mucous producing cell number per unit area (mm^2) and fecal pellet surface mucous thickness were caused along with the atrophy of the total colonic mucosa containing fecal pellets, and thus, compared to the normal vehicle control, significant (p<0.01) decreases in fecal pellet-containing colonic mucosa thickness, the mucous producing cell number in the mucosa and fecal pellet surface mucous thickness were shown.

[9] = cisplatin control (2 mg/kg i.p. weekly) compared to the normal vehicle control
[10] = cisplatin 2 mg/kg i.p. once a week for 5 weeks
[11] = cisplatin control (2 mg/kg i.p. weekly) compared to the normal vehicle control, 33 to 34 days after first cisplatin
[12] = 1 mg/kg s.c., 14 days, compared to the cisplatin control
[13] = 1 mg/kg s.c., 14 days, cisplatin-treated rats
[14] = cisplatin-treated rats, at sacrifice
[15] = compared to the cisplatin control

With `N.N.[Cl][Pt][Cl]` [Cisplatin, cis-diaminedichloroplatinum II] the “change of tryptophan hydroxylase activity in pyloric tissues at the final sacrifice” value (tryptophan hydroxylase; [9]) was 184.55%, the “Body weight Sacrifice [C]” value [1, 10] was 195.13 ± 12.96^a g and the “Body weight gain Test article dosing periods [C − B]” value [1, 10] was −29.88 ± 3.04^d g. The “Body weight gain Total experiment periods [C − A]” value [1, 10] was −4.00 ± 7.01^d g, the “Body weight At 4th cisplatin treatment [B]” value ([1]; cisplatin 2 mg/kg i.p. once a week, three weeks after first administration) was 225.00 ± 13.90^a g and the “change of body weight gain during the total 5-week experiment” value [1, 9] was −107.34%. The “change of body weight gain for 2 weeks after the drug administration” value [1, 9] was −896.67%, the “Number of Serotonin-IR cells in the colonic mucosa” value [2, 10] was 73.75 ± 11.79^a cells/mm^2 of mucosa and the “Number of Serotonin-IR cells in the pyloric mucosa” value [2, 10] was 65.38 ± 11.02^a cells/mm^2 of mucosa. The “change of number of serotonin immunoreactive cells per unit area of the colonic mucosa” value [2, 9] was 514.58%, the “change of number of serotonin immunoreactive cells per unit area of the pyloric mucosa” value [2, 9] was 530.12% and the “Distance charcoal meal transferred” value [3, 10] was 45.00 ± 11.08^a cm. For the same compound, the “GI charcoal transit ratio” value [3, 10] was 35.61 ± 8.66^a %, the “change of charcoal transit ratio in the small intestine” value [3, 9] was −53.09% and the “change of distance that the charcoal meal was transferred in the small intestine” value [3, 9] was −53.06%. For the same compound, the “Fundus Catalase” value [4, 10] was 44.06 ± 8.98^a nM/mim/mg tissue, the “Fundus Glutathione” value [4, 10] was 1.22 ± 0.40^d μM/mg tissue and the “Fundus Malondialdehyde” value [4, 10] was 16.24 ± 2.27^a nM/g tissue. For the same compound, the “Fundus Superoxide dismutase” value [4, 10] was 71.96 ± 15.54^a nM/mim/mg tissue, the “change of CAT activity in fundus tissues at the final sacrifice” value [4, 9] was −55.83% and the “change of GSH content in the fundus tissue at the final sacrifice” value [4, 9] was −72.46%. The “change of MDA content in fundus tissues at the final sacrifice” value [4, 9] was 327.30%, the “change of SOD activity in the fundus tissue at the final sacrifice” value [4, 9] was −56.87% and the “Fecal Dry-weight” value [5, 10] was 5.14 ± 1.51 g. The “Fecal Water content” value [5, 10] was 32.86 ± 6.45^d %, the “Fecal Wet-weight” value [5, 10] was 7.66 ± 2.14^a g and the Fecal pellet number ([5]; cisplatin 2 mg/kg i.p. once a week for 5 weeks, 33 to 34 days after first cisplatin) was 15.75 ± 5.50^a. The “change of average dry weight of feces for 24 hours” value [5, 11] was −7.30%, the “change of average water content in feces excreted for 24 hours” value [5, 11] was −54.47% and the “change of average wet weight of the feces excreted for 24 hours” value [5, 11] was −62.34%. The “change of total number of fecal pellets excreted for 24 hours” value [5, 11] was −61.23%, the “Fundus Degenerative mucosa percentage” value [6, 10] was 54.89 ± 10.97^d %/mucosa and the “Fundus Total mucosa thickness” value [6, 10] was 436.02 ± 87.18^a μm. For the same compound, the “Pylorus Degenerative mucosa percentage” value [6, 10] was 68.26 ± 10.44^a %/mucosa, the “Pylorus Total mucosa thickness” value [6, 10] was 146.12 ± 26.03^a μm and the “change of average fundic mucosa thickness” value [6, 9] was −47.53%. The “change of pylorus average mucosa thickness” value [6, 9] was −61.72%, the “change of monoamine oxidase activity in pyloric tissues at the final sacrifice” value (monoamine oxidase; [9]) was −68.47% and the “change of gastrin content in pyloric tissues at the final sacrifice” value (gastrin; [9]) was −59.22%. For the same compound, the “Number of Gastrin-IR cells in the pyloric mucosa” value [7, 10] was 11.75 ± 3.77^d cells/mm^2 of mucosa, the “change of number of gastrin immunoreactive cells per unit area of the pyloric mucosa” value [7, 9] was −86.42% and the “change of serotonin content in pyloric tissues at the final sacrifice” value (serotonin; [9]) was 279.57%.
In the case of `Cc1nccn1CC1CCc2c(c3ccccc3n2C)C1=O` (centres unmarked) [Ondansetron, ondansetron], the “change of tryptophan hydroxylase activity in pyloric tissues at the final sacrifice” value (tryptophan hydroxylase; [12]) is reported as −4.35%, the “Body weight Sacrifice [C]” value [1, 13] is reported as 212.38 ± 4.66^ab g and the “Body weight gain Test article dosing periods [C − B]” value [1, 13] is reported as −14.50 ± 5.68^de g. The “Body weight gain Total experiment periods [C − A]” value [1, 13] was 14.50 ± 11.64^de g, the “change of body weight gain during the total 5-week experiment” value [1, 12] was 463.50% and the “change of body weight gain for 2 weeks after the drug administration” value [1, 12] was 52.46%. For the same compound, the “Number of Serotonin-IR cells in the colonic mucosa” value [2, 13] was 73.00 ± 17.65^a cells/mm^2 of mucosa, the “Number of Serotonin-IR cells in the pyloric mucosa” value [2, 13] was 64.00 ± 10.45^a cells/mm^2 of mucosa and the “change of number of serotonin immunoreactive cells per unit area of the colonic mucosa” value [2, 12] was −1.02%. For the same compound, the “change of number of serotonin immunoreactive cells per unit area of the pyloric mucosa” value [2, 12] was −2.10%, the “Distance charcoal meal transferred” value [3, 13] was 65.13 ± 10.68^ac cm and the “GI charcoal transit ratio” value [3, 13] was 50.80 ± 8.85^ac %. The “change of charcoal transit ratio in the small intestine” value [3, 12] was 42.66%, the “change of distance that the charcoal meal was transferred in the small intestine” value [3, 12] was 44.72% and the “Fundus Catalase” value [4, 13] was 63.48 ± 12.39^ac nM/mim/mg tissue. The “Fundus Glutathione” value [4, 13] was 1.81 ± 0.17^de μM/mg tissue, the “Fundus Malondialdehyde” value [4, 13] was 9.67 ± 1.93^ac nM/g tissue and the “Fundus Superoxide dismutase” value [4, 13] was 103.00 ± 22.32^ac nM/mim/mg tissue. For the same compound, the “change of CAT activity in fundus tissues at the final sacrifice” value [4, 12] was 44.10%, the “change of GSH content in the fundus tissue at the final sacrifice” value [4, 12] was 48.11% and the “change of MDA content in fundus tissues at the final sacrifice” value [4, 12] was −40.45%. For the same compound, the “change of SOD activity in the fundus tissue at the final sacrifice” value [4, 12] was 43.13%, the “Fecal Dry-weight” value [5, 13] was 5.27 ± 1.10 g and the “Fecal Water content” value [5, 13] was 55.32 ± 13.07^ef %. The “Fecal Wet-weight” value [5, 13] was 12.55 ± 3.71^ab g, the Fecal pellet number [5, 13] was 25.38 ± 6.95^ac and the “change of average dry weight of feces for 24 hours” value [5, 12] was 2.48%. For the same compound, the “change of average water content in feces excreted for 24 hours” value [5, 12] was 68.34%, the “change of average wet weight of the feces excreted for 24 hours” value [5, 12] was 63.91% and the “change of total number of fecal pellets excreted for 24 hours” value [5, 12] was 61.11%. For the same compound, the “Fundus Degenerative mucosa percentage” value [6, 13] was 35.42 ± 4.69^de %/mucosa, the “Fundus Total mucosa thickness” value [6, 13] was 592.37 ± 51.61^ac μm and the “Pylorus Degenerative mucosa percentage” value [6, 13] was 41.08 ± 10.77^ac %/mucosa. The “Pylorus Total mucosa thickness” value [6, 13] was 240.01 ± 36.08^ac μm, the “change of average fundic mucosa thickness” value [6, 12] was 35.86% and the “change of pylorus average mucosa thickness” value [6, 12] was 64.25%. The “change of monoamine oxidase activity in pyloric tissues at the final sacrifice” value (monoamine oxidase; [12]) was 5.05%, the Colonic mucosa thickness [8, 14] was 192.08 ± 27.34^ac μm and the “Fecal pellet surface mucous thickness” value [8, 14] was 28.00 ± 6.98^df μm. For the same compound, the “Mucous producing cell number” value [8, 14] was 306.63 ± 78.94^ac cells/mm^2, the “change of fecal pellet surface mucous thickness in the colon” value [8, 15] was 239.94% and the “change of fecal pellet-containing colon average mucosa thickness” value [8, 15] was 72.06%. The “change of mucous producing cell number in the colonic mucosa” value [8, 15] was 126.92%, the “change of gastrin content in pyloric tissues at the final sacrifice” value (gastrin; [12]) was −3.05% and the “Number of Gastrin-IR cells in the pyloric mucosa” value [7, 13] was 11.63 ± 3.70^d cells/mm^2 of mucosa. The “change of number of gastrin immunoreactive cells per unit area of the pyloric mucosa” value [7, 12] was −1.06% and the “change of serotonin content in pyloric tissues at the final sacrifice” value (serotonin; [12]) was −4.04%.
